The values below come from patent publication EP2818471A1, “Nitrogen bicyclic compounds as inhibitors for Scyl1 and Grk5” (Max-Planck-Gesellschaft zur Förderung der Wissenschaften …, priority 2013, dated 2014).

The target in this test is T1, full length Grk5 (Homo sapiens, UniProt P34947).
T1 construct: 2 µl 6/2 fold concentrated full length Grk5 (Millipore, #14-714) in reaction buffer is added to each well; purchased Millipore 14-714
The experiment in a line: GRK5 kinase activity assay (ADP Glo Kinase Assay). In kind it is biochemical. The conditions noted are these: Table 5. The procedure:
Increasing concentrations of GRK5 are incubated together with 100 µM ATP in the absence and presence of 10 µM casein in a reaction buffer. Within this incubation non-phosphorylated casein is converted into phosphorylated casein and ATP is converted into ADP. Thereafter nonconverted ATP is digested into AMP by addition of the ADP-Glo™Reagent. Subsequently the ADP that is produced by GRK5 activity is phosphorylated back to ATP by addition of Promega Kinase Detection Reagent. These ATP levels serve as measure for the GRK5 activity and are quantified by a luciferase/luciferin reaction.
Km(ATP) was determined by measuring the GRK5 activity at increasing ATP concentrations.
The reaction buffer used was composed of: 20 mM MES pH 6.0, 1 mM DTT, 10 mM MgCl2, 0.01 % Tween20 and the reaction volume was 6µl.
Firstly 4 µl 6/4 fold concentrated substrate and 6/4 fold concentrated ATP in 1 fold concentrated reaction buffer are added to each well of the assay plate. Subsequently 67 nl 1000 fold concentrated test compound in 100 % DMSO are added to each well except to C- and C+ wells using pin tool. Then 67 nl 100 % DMSO are pipetted to C- (no kinase, no compound) and C+ (no compound) wells using pin-tool and 2 µl reaction buffer are added to C- wells. […] Finally, after incubation for 40 min at room temperature the luminescence intensity was measured. […]
A general note: ADP-Glo turns the ADP formed in a reaction into a luminescent signal.

T1 sequence (P34947 whole entry): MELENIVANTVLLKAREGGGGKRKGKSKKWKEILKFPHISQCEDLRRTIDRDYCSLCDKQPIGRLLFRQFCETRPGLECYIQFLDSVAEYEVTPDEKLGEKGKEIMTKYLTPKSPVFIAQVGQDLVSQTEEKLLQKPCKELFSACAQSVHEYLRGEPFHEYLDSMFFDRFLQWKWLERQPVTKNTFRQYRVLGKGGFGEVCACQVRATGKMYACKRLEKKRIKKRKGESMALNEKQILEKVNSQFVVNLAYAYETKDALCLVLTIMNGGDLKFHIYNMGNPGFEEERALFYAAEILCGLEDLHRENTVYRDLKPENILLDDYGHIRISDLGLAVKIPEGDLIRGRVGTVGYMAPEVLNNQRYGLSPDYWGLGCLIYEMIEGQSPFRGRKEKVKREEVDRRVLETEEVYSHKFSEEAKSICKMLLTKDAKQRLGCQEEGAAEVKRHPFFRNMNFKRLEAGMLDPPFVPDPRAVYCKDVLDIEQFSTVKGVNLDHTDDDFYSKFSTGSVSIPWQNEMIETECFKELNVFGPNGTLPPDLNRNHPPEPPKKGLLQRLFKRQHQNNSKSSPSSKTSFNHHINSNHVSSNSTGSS

Usually IC50 stands for the concentration needed to halve the response being measured. A low value points to inhibition by little substance. Consider `NC(=O)c1ccc(-c2cnc3ccc(Cc4ccc(F)cc4)nn23)cc1` [compound 1, 4-[6-[(4-fluorophenyl)methyl]imidazo[1,2-b]pyridazin-3-yl]benzamide], for which the IC50 lay in the range of 20 to 80 µM.
